From ChEMBL document CHEMBL1201862, “PubChem BioAssay data set” (2004)
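Test compounds were applied to cells in 96-well plates for 48 hours at 5 doses. The concentration for 50% growth inhibition is given as GI50.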 Active and inactive are the calls of the source. Cut-off read from the data, not from the text of the source: active = GI50 up to about 1.1 µM and inactive = higher.

Assays:
Test in all cases: NCI anticancer screen, dose series, 48 h
SR = tested on: SR
OVCAR-5 = tested on: OVCAR-5
HCT-116 = tested on: HCT-116
HOP-92 = tested on: HOP-92
NCI-H23 = tested on: NCI-H23
U-251 = tested on: U-251
DMS-114 = tested on: DMS-114
SNB-78 = tested on: SNB-78
HL-60 = tested on: HL-60
CCRF-CEM = tested on: CCRF-CEM
SK-MEL-28 = tested on: SK-MEL-28
A549 = tested on: A549
SK-OV-3 = tested on: SK-OV-3
KM12 = tested on: KM12
SF-268 = tested on: SF-268
IGROV-1 = tested on: IGROV-1
MOLT-4 = tested on: MOLT-4
RXF 393 = tested on: RXF 393
NCI-H522 = tested on: NCI-H522
RXF 631 = tested on: RXF 631
TK-10 = tested on: TK-10
EKVX = tested on: EKVX
ACHN = tested on: ACHN
UACC-62 = tested on: UACC-62
UO-31 = tested on: UO-31
SNB-19 = tested on: SNB-19
SF-539 = tested on: SF-539
UACC-257 = tested on: UACC-257
HOP-18 = tested on: HOP-18
SNB-75 = tested on: SNB-75
DMS-273 = tested on: DMS-273
HCT-15 = tested on: HCT-15
COLO 205 = tested on: COLO 205
XF498 = tested on: XF498
SF-295 = tested on: SF-295
NCI-H226 = tested on: NCI-H226
Malme-3M = tested on: Malme-3M
786-0 = tested on: 786-0
CAKI-1 = tested on: CAKI-1
KM-20L2 = tested on: KM-20L2
HOP-62 = tested on: HOP-62
LXFL 529 = tested on: LXFL 529
LOX IMVI = tested on: LOX IMVI
SK-MEL-2 = tested on: SK-MEL-2
A498 = tested on: A498
DLD-1 = tested on: DLD-1
OVCAR-3 = tested on: OVCAR-3
OVCAR-8 = tested on: OVCAR-8
OVCAR-4 = tested on: OVCAR-4
NCI-H460 = tested on: NCI-H460
SN12C = tested on: SN12C
RPMI-8226 = tested on: RPMI-8226
M19-MEL = tested on: M19-MEL
HT-29 = tested on: HT-29
SK-MEL-5 = tested on: SK-MEL-5
K562 = tested on: K562
M14 = tested on: M14
SW-620 = tested on: SW-620
HCC 2998 = tested on: HCC 2998

Measured: GI50

C=CC1C2=C(C(=O)NCC2)C2OC(O)C3=C(CCNC3=O)C2C1C (stereo not drawn)
inactive: SR > 100 µM | OVCAR-5 > 100 µM | HCT-116 > 100 µM | HOP-92 > 100 µM | NCI-H23 > 100 µM | U-251 > 100 µM | DMS-114 > 100 µM | SNB-78 > 100 µM | HL-60 > 100 µM | CCRF-CEM > 100 µM | SK-MEL-28 > 100 µM | A549 > 100 µM | SK-OV-3 > 100 µM | KM12 > 100 µM | SF-268 > 100 µM | IGROV-1 > 100 µM | MOLT-4 > 100 µM | RXF 393 > 100 µM | NCI-H522 > 100 µM | RXF 631 > 100 µM | TK-10 > 100 µM | EKVX > 100 µM | ACHN > 100 µM | UACC-62 > 100 µM | UO-31 > 100 µM | SNB-19 > 100 µM

CC1(O)C=CC2CCC1C2O (stereo not drawn)
inactive: SR 23.7 µM | OVCAR-5 > 100 µM | HCT-116 19.7 µM | SF-539 > 100 µM | UACC-257 > 100 µM | HOP-18 > 100 µM | NCI-H23 > 100 µM | U-251 > 100 µM | SNB-75 > 100 µM | DMS-273 55.6 µM | DMS-114 17.7 µM | SNB-78 > 100 µM | COLO 205 30.3 µM | XF498 > 100 µM | SF-295 > 100 µM | HL-60 > 100 µM | CCRF-CEM > 100 µM | SK-MEL-28 > 100 µM | NCI-H226 > 100 µM | Malme-3M > 100 µM | 786-0 25.4 µM | CAKI-1 > 100 µM | A549 68.9 µM | KM-20L2 50.9 µM | HOP-62 > 100 µM | LXFL 529 78.9 µM | LOX IMVI 21.5 µM | SK-OV-3 > 100 µM | SK-MEL-2 > 100 µM | A498 > 100 µM | KM12 > 100 µM | DLD-1 58.7 µM | OVCAR-3 > 100 µM | SF-268 29.3 µM | OVCAR-8 > 100 µM | IGROV-1 > 100 µM | OVCAR-4 > 100 µM | MOLT-4 > 100 µM | RXF 393 87.5 µM | NCI-H460 46.5 µM | NCI-H522 > 100 µM | SN12C > 100 µM | RPMI-8226 28.2 µM | M19-MEL > 100 µM | HT-29 > 100 µM | TK-10 > 100 µM | SK-MEL-5 > 100 µM | EKVX > 100 µM | K562 > 100 µM | ACHN > 100 µM | M14 > 100 µM | UACC-62 > 100 µM | UO-31 > 100 µM | SNB-19 > 100 µM
> 100 µM: HCT-15

CCCCCCN(CCCCCC)C1=CC(=O)C(=O)c2ccccc21
17.7 µM: HCT-15
inactive: SR 15.8 µM | OVCAR-5 19.1 µM | HCT-116 17.5 µM | SF-539 17.2 µM | UACC-257 15.2 µM | HOP-18 16.1 µM | HOP-92 14.5 µM | NCI-H23 11.5 µM | U-251 15.8 µM | SNB-75 16.8 µM | DMS-273 19.8 µM | SNB-78 23 µM | COLO 205 16.7 µM | SF-295 15.7 µM | HL-60 10.1 µM | CCRF-CEM 14.9 µM | SK-MEL-28 17.6 µM | NCI-H226 17.3 µM | SW-620 14.2 µM | Malme-3M 21.3 µM | 786-0 16.7 µM | CAKI-1 15 µM | A549 17.1 µM | KM-20L2 18.2 µM | HOP-62 18.7 µM | HCC 2998 20.9 µM | LXFL 529 19.3 µM | LOX IMVI 8.49 µM | SK-OV-3 17.7 µM | SK-MEL-2 18.7 µM | A498 26.5 µM | KM12 17.6 µM | DLD-1 15.2 µM | OVCAR-3 3.55 µM | SF-268 18.7 µM | OVCAR-8 16.1 µM | IGROV-1 17.2 µM | OVCAR-4 15.4 µM | MOLT-4 18.7 µM | RXF 393 25.1 µM | NCI-H460 17.3 µM | NCI-H522 11.6 µM | SN12C 16.4 µM | RXF 631 14.7 µM | RPMI-8226 16.7 µM | M19-MEL 2.26 µM | HT-29 15.1 µM | TK-10 21.7 µM | SK-MEL-5 17.2 µM | EKVX 14.6 µM | K562 17.1 µM | ACHN 17 µM | M14 18.3 µM | UACC-62 16.5 µM | UO-31 13.4 µM | SNB-19 16.1 µM
